Measured values as given in ChEMBL document CHEMBL4304767 (ACS Med Chem Lett, 2019).

Tests used:
[1] = target: T1, Muscarinic acetylcholine receptor M4 (Homo sapiens, UniProt P08173); test: (§1) Agonist activity at human Muscarinic acetylcholine receptor M4 expressed in HEK cells co-expressing Glosensor construct assessed as decrease in isoproterenol-induced cAMP accumulation incubated for 7 mins in presence of isoproterenol by Glosensor cAMP reagent/plate reader based luminescence assay; type: functional, cell-based
T1 sequence (P08173 whole entry): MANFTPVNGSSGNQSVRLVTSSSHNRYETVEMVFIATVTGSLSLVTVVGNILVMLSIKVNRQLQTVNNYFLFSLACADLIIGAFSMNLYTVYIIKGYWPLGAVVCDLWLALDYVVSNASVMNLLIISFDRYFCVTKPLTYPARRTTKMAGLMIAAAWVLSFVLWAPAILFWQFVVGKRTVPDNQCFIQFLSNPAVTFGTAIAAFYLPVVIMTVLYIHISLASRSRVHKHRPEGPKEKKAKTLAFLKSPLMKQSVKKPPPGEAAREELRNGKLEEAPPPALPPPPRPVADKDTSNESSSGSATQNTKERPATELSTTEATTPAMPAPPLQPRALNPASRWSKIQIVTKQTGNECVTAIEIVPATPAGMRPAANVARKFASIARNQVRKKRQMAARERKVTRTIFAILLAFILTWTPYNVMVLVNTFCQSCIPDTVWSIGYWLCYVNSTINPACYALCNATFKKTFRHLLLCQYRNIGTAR

[2] = target: T2, Muscarinic acetylcholine receptor M4 (Homo sapiens) (UniProt P08173); test: Agonist activity at human Muscarinic acetylcholine receptor M4 expressed in HEK cells co-expressing Glosensor construct assessed as decrease in isoproterenol-induced cAMP accumulation at 10 uM to 0.3 nM incubated for 2 hrs in presence of isoproterenol and measured after 7 mins by Glosensor cAMP reagent/plate reader based luminescence assay relative to acetylcholine; type: functional, cell-based
T2 sequence (whole entry): T1 sequence (P08173 whole entry)

[3] = target: T3, Muscarinic acetylcholine receptor M2 (Homo sapiens, UniProt P08172); test: (§2) Agonist activity at human Muscarinic acetylcholine receptor M2 expressed in HEK cells co-expressing Glosensor construct assessed as decrease in isoproterenol-induced cAMP accumulation incubated for 7 mins in presence of isoproterenol by Glosensor cAMP reagent/plate reader based luminescence assay; type: cell-based
T3 sequence (P08172 whole entry): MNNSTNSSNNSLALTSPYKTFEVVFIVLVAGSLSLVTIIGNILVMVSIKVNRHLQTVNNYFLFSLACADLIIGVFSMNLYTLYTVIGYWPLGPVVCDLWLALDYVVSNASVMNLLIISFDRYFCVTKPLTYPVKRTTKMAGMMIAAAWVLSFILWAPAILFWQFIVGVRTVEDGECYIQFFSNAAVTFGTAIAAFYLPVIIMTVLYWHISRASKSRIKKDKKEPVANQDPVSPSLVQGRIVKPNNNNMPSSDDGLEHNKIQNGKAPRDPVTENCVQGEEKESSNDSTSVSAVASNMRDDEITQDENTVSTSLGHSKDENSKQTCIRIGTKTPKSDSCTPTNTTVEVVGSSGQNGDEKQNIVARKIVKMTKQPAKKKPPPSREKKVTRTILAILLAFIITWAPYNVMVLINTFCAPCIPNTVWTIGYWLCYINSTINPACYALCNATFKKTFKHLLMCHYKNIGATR

[4] = target: T1, Muscarinic acetylcholine receptor M4; test: as §1, with “Positive allosteric modulatory” for “Agonist”, “as […]” for “decrease”, “acteylcholine-induced” for “isoproterenol-induced”, “isoproterenol/acetylcholine” for “isoproterenol”; type: functional, cell-based
[5] = target: T2, Muscarinic acetylcholine receptor M4 (Homo sapiens); test: Positive allosteric modulatory activity at human Muscarinic acetylcholine receptor M4 expressed in HEK cells co-expressing Glosensor construct assessed as as increase in acteylcholine-induced cAMP accumulation at 10 uM to 0.3 nM incubated for 7 mins in presence of isoproterenol/acetylcholine by Glosensor cAMP reagent/plate reader based luminescence assay relative to acetylcholine; type: functional, cell-based
[6] = target: T3, Muscarinic acetylcholine receptor M2; test: as §2, with “accumulation at 10 uM to 0.3 nM” for “accumulation”, “assay relative to acetylcholine” for “assay”; type: cell-based
mouse BCRP = test: Efflux ratio of permeability across basolateral to apical over apical to basolateral in Doxycycline induced dog MDCK cells transfected with mouse BCRP; type: ADME, cell-based, Canis lupus familiaris
MDR1 = test: Efflux ratio of permeability across basolateral to apical over apical to basolateral in dog MDCK cells transfected with MDR1 gene; type: ADME, cell-based, Canis lupus familiaris

Row | EC50 [1] | Emax [2] | Structure (SMILES) | EC50 [4] | further results
1 | 23 nM | 82% | CCOC(=O)N1CCC(CN2CCC(c3ncccc3OC)CC2)CC1 |  | EC50 [3]: Not Active
2 | > 5990 nM |  | CCNC(=O)N1CCCC(N2CCC(c3ncccc3OC)CC2)CC1 (stereo not drawn) |  | 
3 | 2510 nM | 94% | COc1cccnc1C1CCN(C2CCCN(c3nsnc3OC)CC2)CC1 (stereo not drawn) |  | 
4 | 228 nM | 100% | COc1cccnc1C1CCN(C2CC3(CCN(c4cnccn4)C3)C2)CC1 (stereo not drawn) |  | EC50 ([3]; read-out: EC50): > 7350 nM; Emax at 7 min [6]: 100%
5 | 9 nM | 90% | CCOC(=O)N1CCC2(CC(N3CCC(c4ncccc4OC)CC3)C2)C1 (stereo not drawn) |  | EC50 ([3]; read-out: EC50): > 10000 nM
6 | 296 nM | 78% | COc1cccnc1C1CCN(CC2CCN(c3cnccn3)CC2)CC1 |  | efflux ratio (mouse BCRP): 1.62; EC50 ([3]; read-out: EC50): > 8830 nM; efflux ratio (MDR1): 3.89; Emax at 7 min [6]: 102%
7 | > 10000 nM |  | CCNS(=O)(=O)N1CCCC(N2CCC(c3ncccc3OC)CC2)CC1 (stereo not drawn) |  | 
8 | > 2740 nM |  | COc1cccnc1C1CCN(C2CCCN(c3nc(C)cs3)CC2)CC1 (stereo not drawn) | > 10000 nM | 
9 | 16 nM | 96.8% | COc1cccnc1C1CCN(C2CCCN(c3cnccn3)CC2)CC1 (stereo not drawn) | 25 nM | Emax [5]: 95.9%; EC50 ([3]; read-out: EC50): 250 nM; Emax at 7 min [6]: 104%
10 | > 4160 nM | 51% | COc1cccnc1C1CCN(C2CCCN(c3cnc(C)cn3)CC2)CC1 (stereo not drawn) |  | 
11 | 470 nM | 107% | COc1cccnc1C1CCN(C2CCCN(c3nsnc3C)CC2)CC1 (stereo not drawn) |  | 
12 | 20 nM | 109% | COc1cccnc1C1CCN(C2CCCN(c3cnsn3)CC2)CC1 (stereo not drawn) |  | 
13 | > 9250 nM |  | COc1cccnc1C1CCN(C2CCCN(C(=O)OC(C)C)CC2)CC1 (stereo not drawn) |  | 

Further lines, the compound ahead of its results:

Row | Structure (SMILES) | EC50 [1] | Emax [2] | EC50 [4] | further results
14 | COc1cccnc1C1CCN(C2CCCN(C(=O)OCC(C)C)CC2)CC1 (stereo not drawn) | > 9930 nM |  |  | 
15 | CCCC(=O)N1CCCC(N2CCC(c3ncccc3OC)CC2)CC1 (stereo not drawn) | > 8880 nM |  |  | 
16 | COc1cccnc1C1CCN(C2CCCN(c3ncccn3)CC2)CC1 (stereo not drawn) |  |  | > 10000 nM | 
17 | COc1cccnc1C1CCN(C2CCCN(c3cccnn3)CC2)CC1 (stereo not drawn) |  |  | > 10000 nM | 
18 | O=C1CCCN1CC#CCN1CCCC1 [OXOTREMORINE] |  | 94.4% | 9 nM | Emax [5]: 90.7%
19 | CCOC(=O)N1CCCC(N2CCC(c3ncccc3OC)CC2)CC1 (stereo not drawn) | 11 nM | 99 to 99.1% |  | EC50 ([3]; read-out: EC50): 2520 nM; Emax at 7 min [6]: 83%
20 | COc1cccnc1C1CCN(C2CCCN(c3ncns3)CC2)CC1 (stereo not drawn) | 1100 nM | 101% |  | 
21 | COc1cccnc1C1CCN(C2CCCN(c3nccnc3C)CC2)CC1 (stereo not drawn) | 3550 nM | 120% | 3410 nM | 
22 | COc1cccnc1C1CCN(C2CCCN(c3ccccn3)CC2)CC1 (stereo not drawn) |  |  | > 10000 nM | 
23 | CCOC(=O)N1CCC2(CC(N3C[C@@H]4[C@H](C3)[C@@H]4c3nccn3-c3ccccc3)C2)C1 (stereo partly drawn) | 3 nM | 99% |  | EC50 ([3]; read-out: EC50): 5160 nM; Emax at 7 min [6]: 100%
24 | COc1cccnc1C1CCN(C2CCCN(c3cncc(C)n3)CC2)CC1 (stereo not drawn) | 9830 nM | 100% | > 10000 nM | 
25 | CCCCCCOc1nsnc1C1=CCCN(C)C1 |  |  |  | Emax [5]: 100%
26 | COc1cccnc1C1CCN(C2CCCN(c3nncs3)CC2)CC1 (stereo not drawn) | > 10000 nM |  | > 10000 nM | 
27 | c1ccc(-n2ccnc2[C@@H]2[C@@H]3CN(C4CC5(CCN(c6cnccn6)C5)C4)C[C@@H]32)cc1 (stereo partly drawn) | 7 nM | 83.8% |  | EC50 ([3]; read-out: EC50): 420 nM; Emax at 7 min [6]: 79.4%
28 | COc1cccnc1C1CCN(C2CCCN(c3cccnc3)CC2)CC1 (stereo not drawn) |  |  | 10000 nM | Emax [5]: 80%
29 | COc1cccnc1C1CCN(C2CCCN(c3ccncc3)CC2)CC1 (stereo not drawn) | > 10000 nM |  | > 10000 nM | 
30 | COc1cccnc1C1CCN(C2CCCN(c3nccs3)CC2)CC1 (stereo not drawn) | > 10000 nM |  | > 10000 nM | 
31 | COc1cccnc1C1CCN(C2CCCN(c3cncnc3)CC2)CC1 (stereo not drawn) |  |  | > 10000 nM | 
